Measured values reported in patent US5705649A, “Protein staining compositions and methods” (Promega Corporation, priority 1995, dated 1998).

Columns and labels:
[1] = tested on: Promega Mid-Range Molecular Weight Markers; experiment: Enhancement of staining of proteins in SDS-PAGE gels in 5% acetic acid
Protocol: The gels described above were placed in 5% acetic acid following the termination of the electrophoretic separation. Within one to two minutes the gel developed a light green background but the protein bands dramatically darkened to a green color. […] Again, the color of the background darkened to a greater degree when greater concentrations of dye were used.
The gels above (from Example 7) were placed in 5% acetic acid following termination of the electrophoretic separation. Within 1-2 minutes, all the gels turned light green and the color of the stained bands intensified such that all proteins were visible--even in the lane containing 0.25 μg protein/band.
The gels above (Example 9) were placed in 5% acetic acid following termination of the electrophoretic separation. Within 1-2 minutes, all the gels turned light green and the color of the stained bands intensified such that all proteins were visible--even in the lanes containing 0.25 μg protein/band.

ovalbumin = experiment: Quantitation of proteins separated by SDS-PAGE (dye extracted from excised bands); details: 43 Kd
Protocol: The samples used were prepared with Promega Mid-Range Molecular Weight Markers solution (Promega Corp., Madison, Wis., USA, Catalog No. V5231) (referred to hereinafter as "Promega Mid-Range [Molecular Weight] Markers or Standards") diluted into Sample Buffer. Promega Mid-Range Molecular Weight Markers is a solution, at about 0.5 mg/ml, of each of the following proteins as a molecular weight standard: phosphorylase B (apparent molecular weight: 97,400 daltons ("d")), bovine serum albumin (apparent molecular weight: 66,200 d), glutamate dehydrogenase (apparent molecular weight: 55,000 d), ovalbumin (apparent molecular weight: 42,700 d), aldolase (apparent molecular weight: 40,000 d), carbonic anhydrase (apparent molecular weight: 31,000 d), soybean trypsin inhibitor (apparent molecular weight: 21,500 d), and lysozyme (apparent molecular weight: 14,400 d). […] The samples were heated to 95° C. for 10 minutes with occasional vortex treatment in 1.5 ml Eppendorf centrifuge tubes and then centrifuged in an Eppendorf centrifuge for 20 seconds to ensure that the protein in the sample was denatured and well mixed.
A 10% SDS-PAGE gel was made as described in the Example 5. Promega Mid-Range Molecular Weight Standards were diluted into loading buffer to produce solutions containing 2.0, 1.0, 0.5, and 0.25 μg of protein per band in 5 μl of solution. Duplicate 5 μl solutions of each of these solutions were loaded into 1 of the 10 sample wells in the gel after the solutions were heated at 95° C. for 10 minutes. The gel was then electrophoresed at 160 V until the running dye just eluted from the bottom of the gel. The gel was destained, and signal from stained protein enhanced, for 90 minutes in 30% methanol, 4% acetic acid.
One of the pair of duplicate bands for the 97.4, 66.2, 55.0 and 42.7 kilodalton standards from the lanes containing 2.0, 1.0, 0.5, and 0.25 μg of protein per band were excised with a razor blade as were two control gel segments from regions of the gel not containing protein. The excised segments were placed in individual 1.5 ml Eppendorf tubes containing 2% SDS and allowed to incubate at room temperature for 72 hours. After this time, the solutions were removed from the extracted segments and acetic acid was added to 2% (v/v) final concentration. The absorption of the solutions at […] was then measured.

[2] = tested on: Promega Mid-Range Molecular Weight Markers; experiment: Recovery of proteins separated by gel electrophoresis; details: re-run 10% SDS-PAGE, 30% methanol, 4% acetic acid, 1 hour
Protocol: An 8% SDS-PAGE gel was prepared as described above and loaded with Promega Mid-Range Molecular Weight Markers at a concentration of 4 μg of each protein per lane. The gel was run at 160 V with 200 μl of octyl Coomassie (Promega Green 1) stock solution in the cathode buffer (125 ml).
After electrophoresis, the gel segments containing the 97, 66, 55, 43, and 40 kilodalton proteins were excised from four consecutive lanes, minced, and placed in individual 1.5 ml Eppendorf tubes containing 0.5 ml of 50 mM ammonium bicarbonate pH 7.8 containing 0.02% SDS (w/v). The tubes were then incubated at 50° C. for 14 hours.
After that time, the tubes were spun for 1 minute in a microfuge to pellet the minced acrylamide and 0.47 ml of the supernate was removed to new 1.5 ml tubes. Two of the four solutions from each of the eluted protein samples were dried in a Speed-Vac, the other pair was first ultrafiltered through a 5000 dalton cut-off Milligen centrifugal concentrator by centrifugation in a microfuge for 30 minutes. These concentrated solutions were then dried in a Speed Vac.
The dried samples were resuspended in 25 μl of 1× loading buffer and heated at 95° C. for 10 minutes. These samples were then loaded in two 15-well, 0.75 mm 10% SDS-PAGE gels made as above. The gels were then run at 160 V with 200 μl of Promega Green 1 stock solution in the cathode buffer (125 ml). […]

Absorbance at 630 nm (ovalbumin; 0.25 μg/band): .042 | Absorbance at 630 nm (ovalbumin; 0.50 μg/band): .064 | Absorbance at 630 nm (ovalbumin; 1.00 μg/band): .126 | Absorbance at 630 nm (ovalbumin; 2.00 μg/band): .195
Compound: CCCCCCCC(=O)N(c1ccc(OCC)cc1)c1ccc(C(=C2C=CC(=[N+](CC)Cc3cccc(S(=O)(=O)[O-])c3)C=C2)c2ccc(N(CC)Cc3cccc(S(=O)(=O)O)c3)cc2)cc1 [Promega Green 1]
visibility of protein bands after enhancement ([1]; 5% acetic acid, one to two minutes): All of the protein bands in all the lanes having sample were now visible | staining after overnight incubation ([1]; 5% acetic acid, overnight): appeared to darken slightly | overall performance ([1]; Examples 5-10): most desirable properties of the compounds tested | detection of recovered proteins [2]: the expected protein bands could be seen in the lanes
